Reference: patent US9463188B2, “Osteopontin production inhibitor containing dictyopyrone derivative or dihydrodictyopyrone derivative as active ingredient” (TOHOKU UNIVERSITY, priority 2013, dated 2016)

Test system: human non-small cell lung cancer-derived cell line A549
Assay: Matrix-Invasion assay (Matrigel)
Assay type: cell-based
Procedure: As a second test for determining whether or not the physiological function of cells induced by OPN production is suppressed by a test compound, Matrix-Invasion assay was performed. In this assay, cups (inserts) whose bottom was covered with a membrane coated with collagen or laminin (Matrigel, BD Bioscience) as an extracellular matrix component and having φ8 μm pores and a 24-well plate for inserting the inserts were prepared. Cells suspended in a serum-free medium were placed in the inside insert, and a medium containing a substance inducing metastasis and invasion of cells (here, fetal calf serum) was injected into each well of the outside 24-well plate to determine the number of cells passing through the Matrigel-coated membrane of the insert and coming into the outside well.
Specifically, a fluorescent dye was introduced into A549 cells invading outside the membrane, and then the cells were separated from the membrane to measure their fluorescence intensity. At the same time, a fluorescent dye was introduced also into a known number of cells for preparing a calibration curve, and a calibration curve was prepared from their fluorescence intensity. Then, the number of invading cells of a test sample containing an unknown number of cells was determined from the fitted curve.
Cancer cells produce OPN by stimulation of fetal calf serum added to the outside medium. However, when OPN is present in the culture liquid, the cells produce Matrix Metalloproteinase (MMP) that is a collagen-degrading enzyme so that Matrigel is dissolved, and in addition, the cells transfer to the outside well due to their improved migration capacity. […]
Cells of a human non-small cell lung cancer-derived cell line A549 were suspended in DMEM medium containing 10% FCS and 1% P/S at 1.8×10^5 cells/mL to obtain a cell suspension. […] This day was counted as Day 0 of operation. […]

## CCCCCCCCCCCC(=O)[C@H]1C(=O)O[C@@H](C)C[C@@H]1C [Chemical formula 3]
25 μmol/L, 48±4 hours
  total number of invading cells vs control group: no significant difference
50 μmol/L, 48±4 hours
  total number of invading cells relative to control group: about half
A549 cells, 50 μmol/L, significance level less than 1%
  suppression of matrix invasion vs control group: significantly suppressed
